Where a name gives a salt, the structure may show the parent alone.
How the values were obtained:
Assay type in all cases: in vivo
[1] = test system: LPS-induced NFkB activation; experiment: NFkB-luciferase reporter mice assay (LPS-induced endotoxemia); conditions: for inhibition of LPS-induced NFkB activation: 20 nanomoles test compound i.p. 30 minutes prior to LPS 2 mg/kg, 6 hrs, IVIS luciferase imaging
Protocol: (§1) Compound preparation and delivery. All 65 identified compounds were received in solid form and stored at 4° C. until use. Stock solutions of each compound were made by dissolving the appropriate amount of each compound in dimethyl sulfoxide (DMSO) to yield a concentration of 10 mM. Immediately prior to injection into experimental animals, the compounds were diluted to an experimental concentration of 100 uM in phosphate-buffered saline (PBS). Total concentration of DMSO in the final diluted drug was 1%. Compounds were closely examined to insure that no precipitate formed prior to injection and were stored on ice until injection. All compounds were given via intraperitoneal (i.p.) injection in a total volume of 200 ul using a 1 cc syringe and 27 gauge needle. In all experiments listed below, the compounds were delivered to the experimental mice 30 minutes prior to injection with lipopolysaccharide (LPS) to induce endotoxemia. Control animals not receiving compound received 1% DMSO dissolved in PBS. Following drug injection, the mice were observed closely in their cages for signs of immediate toxicity or adverse reaction to the drug, including but not limited to piloerection, tachypnea, bleeding, abnormal or aggressive behavior, signs of altered mental status, and level of activity.
(§2) Induction of endotoxemia. All mice were housed and cared for at the Rangos Research Center, Children's Hospital of Pittsburgh (Pittsburgh, Pa.). All experiments were approved by the Children's Hospital of Pittsburgh Animal Care Committee and by the Institutional Review Board of the University of Pittsburgh. Swiss Webster (CFW) and NFkB-luciferase reporter mice were obtained from The Jackson Laboratory. Throughout the course of all experiments, mice were housed 4 per cage with access to food, water, and standard bedding. Endotoxemia was induced in all experiments by i.p. injection of LPS (Escherichia coli 0111:B4 purified by gel filtration chromatography, >99% pure, Sigma-Aldrich) at a dose of 2 mg/kg for 6 hours. At the end of each experiment, all animals were euthanized by CO2 hypoxia and cervical dislocation.
NFkB-luciferase reporter mice assay. NFkB-luciferase reporter mice, in which the […], were subjected to endotoxemia with or without pretreatment with experimental compounds. The experimental compounds treated by this assay were compounds 1-6, with compounds 1-3 tested first and compounds 4-6 tested later. For both experiments, the mice were 6 weeks old on the date of the experiment. […] After whole body imaging, an additional injection of luciferin is given and animals were euthanized, organs were harvested, and the extent of NFkB activation within various tissues was further analyzed by an additional luminescence image of the individual organs. […]

iNOS mRNA = experiment: CFW-NEC mouse model (formula feeding), iNOS mRNA levels; conditions: 1 mg/kg, i.p., once daily for the first four days of the five day model; relative to RPLO
From the text: Inducible nitric oxide synthase (iNOS) is associated with necrotizing enterocolitis (NEC) in human infants. In a second set of experiments, the CFW-NEC mouse model system for NEC was used to evaluate the effect of various compounds from TABLES 1 and 2 above on iNOS mRNA levels. A model system for NEC was induced in newborn mouse pups by formula feeding, where control animals were breast-fed (Sodhi et al., 2010, Gastroenterol. 138(1):185-196; Richardson et al., 2010, Gastroenterol. 139(3):904-917). […] Note that RPLO stands for 505 ribosomal subunit protein L15, an acknowledged housekeeping gene, which means that it is a constitutive gene expressed at relatively constant levels by all cells and is thus used as a reference for comparing other genes which may vary under experimental conditions. In this same model system, levels of TLR4 mRNA levels were also evaluated. […] In contrast, the level of TLR4 was not increased in FF animals treated with C34 (1 mg/kg, i.p. once daily for the first four days of the five day model) and indeed mRNA levels were 30 percent below normal (see FIG. 14).

TLR4 = target: T1, TLR4 (Mus musculus, UniProt Q9JHF9+Q9QUK6); experiment: CFW endotoxemia assay (observation of behavior and phenotype after LPS); conditions: CFW mice, 20 nanomoles compound i.p. 30 minutes prior to LPS 2 mg/kg, 6 hours; for Observation (Compound “Negatives”): listed as “Negatives”; for Observation (Compound “Hits”): listed as “Hits”
T1 construct: Swiss Webster (CFW) and NFkB-luciferase reporter mice were obtained from The Jackson Laboratory; tissue The Jackson Laboratory; host or cells: whole live Swiss Webster (CFW) mice
T1 sequence (Q9QUK6 26-835): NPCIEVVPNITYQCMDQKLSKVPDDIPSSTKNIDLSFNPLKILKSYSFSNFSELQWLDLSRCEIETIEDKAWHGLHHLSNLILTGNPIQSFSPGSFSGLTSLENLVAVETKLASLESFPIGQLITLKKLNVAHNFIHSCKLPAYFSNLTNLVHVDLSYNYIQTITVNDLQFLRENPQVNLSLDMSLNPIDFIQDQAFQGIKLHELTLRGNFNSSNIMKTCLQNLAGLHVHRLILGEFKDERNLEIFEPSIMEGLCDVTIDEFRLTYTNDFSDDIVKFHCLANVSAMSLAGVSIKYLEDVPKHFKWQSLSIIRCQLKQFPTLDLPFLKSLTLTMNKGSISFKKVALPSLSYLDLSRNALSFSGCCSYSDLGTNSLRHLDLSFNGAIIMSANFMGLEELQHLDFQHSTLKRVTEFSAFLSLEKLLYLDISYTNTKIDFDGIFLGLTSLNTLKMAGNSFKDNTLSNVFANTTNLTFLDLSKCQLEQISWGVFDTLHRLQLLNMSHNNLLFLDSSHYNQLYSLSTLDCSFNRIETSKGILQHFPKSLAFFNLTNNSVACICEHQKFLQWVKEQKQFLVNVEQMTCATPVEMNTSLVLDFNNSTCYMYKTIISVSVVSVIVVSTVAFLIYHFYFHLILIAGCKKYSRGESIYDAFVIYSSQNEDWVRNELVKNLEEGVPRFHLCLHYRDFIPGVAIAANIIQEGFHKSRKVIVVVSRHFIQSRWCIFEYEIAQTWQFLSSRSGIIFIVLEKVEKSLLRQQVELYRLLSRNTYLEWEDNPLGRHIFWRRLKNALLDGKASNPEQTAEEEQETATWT
T1 sequence (Q9JHF9 19-160): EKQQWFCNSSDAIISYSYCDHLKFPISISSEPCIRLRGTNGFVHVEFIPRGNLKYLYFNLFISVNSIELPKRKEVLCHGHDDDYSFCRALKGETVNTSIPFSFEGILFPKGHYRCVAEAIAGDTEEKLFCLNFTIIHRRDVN
Protocol: as §1, §2
CFW endotoxemia assay. In order to effectively screen the entire compound list, the remaining compounds (7-60) were screened in a model of endotoxemia using CFW mice. Three separate experiments were performed: First, Compound 7 along with a repeat of compound 4 (n=3 mice per compound, mice age 5 weeks) were tested. Controls were saline injection alone (n=1), LPS 2 mg/kg 6 hrs (n=2). Second, compounds 3, 4, 6, 8-32 were tested (n=1 mouse each, 3 week old mice). Controls were saline injection alone (n=1), LPS 2 mg/kg 6 hrs (n=2), LPS 10 mg/kg 6 hrs (n=2), Bay 11 pretreatment 20 mg/kg for 30 minutes prior to LPS 2 mg/kg 6 hrs. Third, compounds 8, 16, 33-60 were tested (n=1 mouse each, 3 week old mice). Controls were saline injection alone (n=1), LPS 2 mg/kg 6 hrs (n=2), Bay 11 pretreatment 20 mg/kg for 30 minutes prior to LPS 2 mg/kg 6 hrs. Following 6 hours of endotoxemia, mice from the second and third experiments were observed within their cages and videotaped to document behavior and phenotypic differences to assess for an inhibitory effect of compound pretreatment on the effects of LPS. Mice were identified by a number previously placed using permanent marker on their tails. The degree of piloerection, tachypnea, location in the cage (center of cage versus corners), degree of activity, and behavior relative to other animals was observed and documented via video for each mouse.
Less activity, tachypnea, and piloerection are considered symptomatic of endotoxemia, so a decrease in these is consistent with TLR inhibition by the administered compound. Note that compounds listed as negatives may still be T4Ics at other concentrations or conditions.

SMILES	Observation (Compound “Negatives”) (TLR4)	Observation (Compound “Hits”) (TLR4)	further results
CC(=O)N[C@H]1C(O)O[C@H](CO)[C@H](O)[C@@H]1O.O (stereo partly drawn) [Compound 16, 2-(acetylamino)-2-deoxy-D-galactopyranose hydrate]	–	–	NFκB signalling (luciferase imaging) ([1]; LPS 2 mg/kg plus compound 1 mg/kg i.p.): reduced NFκB signalling
CC(=O)NC1C(O)OC(CO)[C@@H](O[C@@H]2OC(CO)[C@H](O)C(O)C2O)C1O (stereo partly shown) [Compound 27, 2-(acetylamino)-2-deoxy-4-O-hexopyranosylhexopyranose]	–	–	increase of iNOS mRNA level in formula-fed (FF) pups (iNOS mRNA): much less
CCCCCCCCCCCCCCCCCCCCCCCCCC(=O)NC(COC1OC(CO)C(O)C(O)C1O)C(O)C(O)CCCCCCCCCCCCCC [Compound 2, N-{(1S,2S,3R)-1-[(beta-L-glycero-hexopyranosyloxy)methyl]-2,3-dihydroxyheptadecyl}hexacosanamide]	–	–	inhibition of LPS-induced NFkB activation [1]: exception
CC(=O)N[C@H]1[C@H](O[C@H]2[C@H](O)[C@@H](NC(C)=O)C(O)O[C@@H]2CO)O[C@H](CO)[C@@H](O[C@@H]2O[C@H](CO)[C@@H](O)[C@H](O)[C@H]2NC(C)=O)[C@@H]1O (stereo partly drawn) [Compound 1, 2-(acetylamino)-4-O-{2-(acetylamino)-4-O-[2-(acetylamino)-2-deoxy-beta-D-glucopyranosyl]-2-deoxy-beta-D-glucopyranosyl}-2-deoxy-D-glucopyranose]	More tachypnea, rigors	–	–
CC(=O)NC1C(O)OC(CO)C(O)C1O [Compound 52, 2-(acetylamino)-2-deoxy-beta-D-glycero-hexopyranose]	–	More active, less piloerection	–
CCCCCCO[C@@H]1O[C@H](COC(C)=O)[C@@H](OC(C)=O)[C@H](OC(C)=O)[C@H]1NC(C)=O [Compound 36, hexyl 3,4,6-tri-O-acetyl-2-(acetylamino)-2-deoxy-beta-D-glucopyranoside]	–	More active, crawled over other mice, less piloerection	–
CCCCCCCCCCCCCCCCOC1OC(COC(C)=O)C(OC(C)=O)C(OC(C)=O)C1NC(C)=O (stereo not shown) [Compound 61, [5-acetamido-3-acetyloxy-2-(acetyloxymethyl)-6-hexadecoxy-oxan-4-yl] acetate]	–	Less piloerection, less tachypnea	–
CC(=O)NC1C(OP(=O)(O)O)OC(CO)C(O)C1O (stereo not shown) [Compound 4, 3-acetamido-4,5-dihydroxy-6-(hydroxymethyl)tetrahydro-2H-pyran-2-yl dihydrogen phosphate, sodium salt]	–	–	inhibition of LPS-induced NFkB activation ([1]; phosphate, sodium salt): greatest inhibitory activity
CC(=O)N[C@H]1[C@@H](OP(=O)([O-])OP(=O)([O-])OC[C@H]2O[C@@H](n3ccc(=O)[nH]c3=O)[C@H](O)[C@@H]2O)O[C@H](CO)[C@@H](O)[C@@H]1O.[Na+].[Na+] [Compound 41, Uridine 5′-diphospho-N-acetylglucosamine sodium salt]	Less active, huddled in corner	–	–
CC(=O)N[C@@H]1C[C@H](O)[C@@H](CO)O[C@H]1O[C@H]1[C@H](O)[C@@H](O)[C@H](O)O[C@@H]1C(=O)[O-].[Na+] [Compound 32, sodium (2S,3S,4R,5R,6R)-3-((2S,3R,5S,6R)-3-acetamido-5-hydroxy-6-(hydroxymethyl)tetrahydro-2H-pyran-2-yloxy)-4,5,6-trihydroxytetrahydro-2H-pyran-2-carboxylate]	More tachypneic, more piloerection	–	–
